Patent US11976083B2, “Inhibitors of peptidylarginine deiminases” (Gilead Sciences, Inc., priority 2020, dated 2024)

Molecular target: T1, human PAD4 (Homo sapiens, UniProt Q9UM07)
T1 construct: human PAD4 (NM_012387), A2-P663, was PCR amplified; His-SUMO (N, cleaved yes); made in house; host or cells: E. coli BL21(DE3)
Test: In vitro PAD4 BAEE biochemical assay
Conditions: BAEE substrate 3 mM, 5 nM PAD4, 2 mM calcium chloride; geometric mean of multiple experiments
Description: In Vitro PAD4 BAEE Biochemical Assay
The enzymatic activity of human PAD4 was monitored in a biochemical assay in the presence or absence of compounds using the small peptidyl arginine mimic BAEE (Na-Benzoyl-L-arginine ethyl ester hydrochloride) as substrate. PAD4 activity led to deimination of BAEE and release of ammonia. Levels of ammonia were monitored by using an amine coupling reaction and were indicative of PAD4 enzymatic activity.
One hundred nanoliters of test compounds dissolved in DMSO at various concentrations were dispensed into a 384-well black OptiPlate using a Labcyte Echo instrument. Ten microliters of a solution of recombinant PAD4 and calcium chloride diluted in PAD4 assay buffer (50 mM MOPS [3-(N-morpholino) propanesulfonic acid], pH 7.6; 50 mM sodium chloride; 0.05% Tween-20; 2 mM dithiothreitol) was added to the compound-containing plate and was incubated for 30 minutes at 25° C. Ten microliters of a solution of BAEE (Sigma-Aldrich #B4500) diluted in PAD4 assay buffer was then added to start the reaction. Final concentrations were 5 nM PAD4, 2 mM calcium chloride, and 3 mM BAEE. The reaction mixture was incubated at 25° C. for 2 hours and was stopped with the addition of 10 microliters of a solution of 75 mM EDTA (Ethylenediaminetetraacetic acid) in PAD4 assay buffer. Thirty microliters of detection solution (5 mM o-phthalaldehyde, 50 mM MOPS [3-(N-morpholino) propanesulfonic acid], pH 7.6; 50 mM sodium chloride; 0.05% Tween-20; 5 mM dithiothreitol) was then added and the reaction was incubated for 1 hour at 25° C. The level of fluorescent thiol-substituted isoindole resulting from the reaction of ammonia, o-phthalaldehyde, and dithiothreitol was measured on an Envision plate reader (PerkinElmer) with 405 nm excitation and 535 nm emission.
Data were normalized based on maximum inhibition (50 micromolar of the covalent PAD inhibitor BB-Cl-Amidine (Bicker, K. L.; Anguish, L.; Chumanevich, A. A.; Cameron, M. D.; Cui, X.; Witalison, E.; Subramanian, V.; Zhang, X.; Chumanevich, A. P.; Hofseth, L. J.; Coonrod, S. A.; Thompson, P. R. ACS Med. Chem. Lett. 2012, 3, 1081-1085). and no inhibition (DMSO) controls. Least squares curve fittings were performed using a four-parameter variable slope nonlinear regression model. IC50 is defined as the concentration of compound required to inhibit 50% of maximum activity. IC50 values from multiple experiments were averaged by geometric mean and the standard deviation was calculated.

T1 sequence (Q9UM07 2-663): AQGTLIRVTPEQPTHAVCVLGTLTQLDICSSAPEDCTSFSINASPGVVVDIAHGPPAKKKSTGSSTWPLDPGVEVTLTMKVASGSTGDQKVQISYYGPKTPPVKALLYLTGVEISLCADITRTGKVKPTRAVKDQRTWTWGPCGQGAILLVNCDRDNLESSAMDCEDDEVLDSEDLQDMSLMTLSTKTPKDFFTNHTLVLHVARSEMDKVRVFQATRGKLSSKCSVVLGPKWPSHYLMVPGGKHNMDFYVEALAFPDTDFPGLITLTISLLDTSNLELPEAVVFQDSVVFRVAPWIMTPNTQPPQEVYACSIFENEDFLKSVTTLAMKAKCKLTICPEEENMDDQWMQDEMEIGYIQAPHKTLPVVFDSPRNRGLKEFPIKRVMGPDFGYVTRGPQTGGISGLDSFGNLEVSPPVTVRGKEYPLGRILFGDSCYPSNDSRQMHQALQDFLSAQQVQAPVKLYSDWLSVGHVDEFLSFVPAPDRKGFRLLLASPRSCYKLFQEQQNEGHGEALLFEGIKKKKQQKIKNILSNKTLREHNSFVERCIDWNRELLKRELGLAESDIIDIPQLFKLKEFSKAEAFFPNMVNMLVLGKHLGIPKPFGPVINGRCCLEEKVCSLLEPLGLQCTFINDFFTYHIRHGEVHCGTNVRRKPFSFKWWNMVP

`C[C@H]1NC(=O)[C@@H]2C[C@H]2CCCCCn2c(-c3nc4cc(C(=O)N[C@H]5CNCC[C@@H]5F)c(F)c(F)c4n3C3CC3)cc3ccc1nc32` (single isomer, unassigned) [Example 275, 1-cyclopropyl-6,7-difluoro-˜{N}-[(3˜{S},4˜{S})-4-fluoro-3-piperidyl]-2-[(2˜{R},5˜{R},7˜{R})-2-methyl-4-oxo-3,13,19-triazatetracyclo[11.5.2.0^{5,7}.0^{16,20}]icosa-1(19),14,16(20),17-tetraen-14-yl]benzimidazole-5-carboxamide] was tested. Which IC50 did it give?
Its IC50 is 24 nM.

How did the IC50 turn out when `COc1cc(C(=O)N2CCC[C@@H](N)C2)cc2nc(-c3cc4ccc5nc4n3C[C@H]3C[C@H]3COC[C@@H](C)C(=O)N[C@@H]5C)n(C)c12` (single isomer, unassigned) [Example 312, (3˜{S},5˜{R},9˜{R},12˜{R})-18-[5-[(3˜{R})-3-aminopiperidine-1-carbonyl]-7-methoxy-1-methyl-benzimidazol-2-yl]-9,12-dimethyl-7-oxa-1,11,20-triazatetracyclo[11.5.2.0^{3,5}.0^{16,19}]icosa-13(20),14,16(19),17-tetraen-10-one] was run?
Its IC50 is 56 nM.

With `COc1cc(C(=O)N2CCC[C@@H](N)C2)cc2nc(-c3cc4ccc5nc4n3C[C@H]3C[C@H]3COC[C@H](C)C(=O)N[C@@H]5C)n(C)c12` (single isomer, unassigned) [Example 313, (3˜{S},5˜{R},9˜{S},12˜{R})-18-[5-[(3˜{R})-3-aminopiperidine-1-carbonyl]-7-methoxy-1-methyl-benzimidazol-2-yl]-9,12-dimethyl-7-oxa-1,11,20-triazatetracyclo[11.5.2.0^{3,5}.0^{16,19}]icosa-13(20),14,16(19),17-tetraen-10-one] as the molecule, how does the IC50 read?
The IC50 was 85 nM.

How did the IC50 turn out when `COc1cc(C(=O)N2[C@H]3CC[C@@H]2[C@H](N)C3)cc2nc(-c3cc4ccc5nc4n3C[C@H]3C[C@H]3COCCC(=O)N[C@@H]5C)c(C)n12` (single isomer, unassigned) [Example 327, (3˜{S},5˜{R},12˜{R})-18-[7-[(1˜{R},2˜{R},4˜{S})-2-amino-7-azabicyclo[2.2.1]heptane-7-carbonyl]-5-methoxy-3-methyl-imidazo[1,2-a]pyridin-2-yl]-12-methyl-7-oxa-1,11,20-triazatetracyclo[11.5.2.0^{3,5}.0^{16,19}]icosa-13(20),14,16(19),17-tetraen-10-one] was run?
Its IC50 is 12 nM.

For `COc1cc(C(=O)N2[C@H]3CC[C@@H]2[C@H](N)C3)cc2nc(-c3cc4ccc5nc4n3C[C@@H]3C[C@@H]3COCCC(=O)N[C@@H]5C)c(C)n12` (single isomer, unassigned) [Example 328, (3˜{R},5˜{S},12˜{R})-18-[7-[(1˜{R},2˜{R},4˜{S})-2-amino-7-azabicyclo[2.2.1]heptane-7-carbonyl]-5-methoxy-3-methyl-imidazo[1,2-a]pyridin-2-yl]-12-methyl-7-oxa-1,11,20-triazatetracyclo[11.5.2.0^{3,5}.0^{16,19}]icosa-13(20),14,16(19),17-tetraen-10-one], which IC50 is on record?
Its IC50 is 25 nM.

With `COc1cc(C(=O)N2[C@H]3CC[C@@H]2[C@H](N)C3)cc2nc(-c3cc4ccc5nc4n3CCCCCC[C@@H](OC)C(=O)N[C@@H]5C)c(C)n12` (single isomer, unassigned) [Example 334, (8−{R},11−{R})-17-[7-[(1−{R},2˜{R},4˜{S})-2-amino-7-azabicyclo[2.2.1]heptane-7-carbonyl]-5-methoxy-3-methyl-imidazo[1,2-a]pyridin-2-yl]-8-methoxy-11-methyl-1,10,19-triazatricyclo[10.5.2^{15,18}]nonadeca-12(19),13,15(18),16-tetraen-9-one] as the molecule, how does the IC50 read?
The IC50 was 39 nM.

With `COc1cc(C(=O)N2[C@H]3CC[C@@H]2[C@H](N)C3)cc2nc(-c3cc4ccc5nc4n3CCCCCC[C@H](OC)C(=O)N[C@@H]5C)c(C)n12` (single isomer, unassigned) [Example 335, (8˜{S},11˜{R})-17-[7-[(1˜{R},2˜{R},4˜{S})-2-amino-7-azabicyclo[2.2.1]heptane-7-carbonyl]-5-methoxy-3-methyl-imidazo[1,2-a]pyridin-2-yl]-8-methoxy-11-methyl-1,10,19-triazatricyclo[10.5.2.0^{15,18}]nonadeca-12(19),13,15(18),16-tetraen-9-one] as the molecule, how does the IC50 read?
Its IC50 is 32 nM.

For `COc1cc(C(=O)N[C@H]2CNCC[C@@H]2F)cc2nc(-c3cc4ccc5nc4n3C[C@H]3[C@H](CCCC(C)(C)C(=O)N[C@@H]5C)C3(F)F)n(C)c12` (single isomer, unassigned) [Example 364, 2-[(3˜{R},5˜{S},12˜{R})-4,4-difluoro-9,9,12-trimethyl-10-oxo-1,11,20-triazatetracyclo[11.5.2.0^{3,5}.0^{16,19}]icosa-13(20),14,16(19),17-tetraen-18-yl]-˜{N}-[(3˜{S},4˜{S})-4-fluoro-3-piperidyl]-7-methoxy-1-methyl-benzimidazole-5-carboxamide], which IC50 is on record?
The IC50 was 203 nM.

For `COc1cc(C(=O)N[C@H]2CNCC[C@@H]2F)cc2nc(-c3cc4ccc5nc4n3C[C@@H]3[C@@H](CCCC(C)(C)C(=O)N[C@@H]5C)C3(F)F)n(C)c12` (single isomer, unassigned) [Example 365, 2-[(3˜{S},5˜{R},12˜{R})-4,4-difluoro-9,9,12-trimethyl-10-oxo-1,11,20-triazatetracyclo[11.5.2.0^{3,5}.0^{16,19}]icosa-13(20),14,16(19),17-tetraen-18-yl]-˜{N}-[(3˜{S},4˜{S})-4-fluoro-3-piperidyl]-7-methoxy-1-methyl-benzimidazole-5-carboxamide], which IC50 is on record?
The IC50 was 119 nM.

For `C[C@H]1NC(=O)[C@H]2[C@@H](CCCCCn3c(-c4nc5cc(C(=O)N[C@H]6CNCC[C@@H]6F)c(F)cc5n4C)cc4ccc1nc43)C2(F)F` (single isomer, unassigned) [Example 381, 2-[(2˜{R},5˜{R},7˜{R})-6,6-difluoro-2-methyl-4-oxo-3,13,19-triazatetracyclo[11.5.2.0^{5,7}.0^{16,20}]icosa-1(19),14,16(20),17-tetraen-14-yl]-6-fluoro-˜{N}-[(3˜{S},4˜{S})-4-fluoro-3-piperidyl]-1-methyl-benzimidazole-5-carboxamide], which IC50 is on record?
The IC50 was 29 nM.

How did the IC50 turn out when `C[C@H]1NC(=O)[C@@H]2[C@@H](CCCCCn3c(-c4nc5cc(C(=O)N[C@H]6CNCC[C@@H]6F)c(F)cc5n4C)cc4ccc1nc43)C2(F)F` (single isomer, unassigned) [Example 382, 2-[(2˜{R},5˜{S},7˜{R})-6,6-difluoro-2-methyl-4-oxo-3,13,19-triazatetracyclo[11.5.2.0^{5,7}.0^{16,20}]icosa-1(19),14,16(20),17-tetraen-14-yl]-6-fluoro-˜{N}-[(3˜{S},4˜{S})-4-fluoro-3-piperidyl]-1-methyl-benzimidazole-5-carboxamide] was run?
The IC50 was 108 nM.

How did the IC50 turn out when `C[C@H]1NC(=O)[C@@H]2C[C@H]2CCCCCn2c(-c3nc4cc(C(=O)N[C@H]5CNCC[C@@H]5F)c(F)cc4n3C3C[C@@H]3C(F)F)cc3ccc1nc32` (single isomer, unassigned) [Example 410, 1-[(1~{R},2~{S})-2-(difluoromethyl)cyclopropyl]-6-fluoro-~ {N}-[(3~{S},4~{S})-4-fluoro-3-piperidyl]-2-[(2~{R},5~{R},7~{R})-2-methyl-4-oxo-3,13,19-triazatetracyclo[11.5.2.0^{5,7}.0^{16,20}]icosa-1(19),14,16(20),17-tetraen-14-yl]benzimidazole-5-carboxamide] was run?
Its IC50 is 51 nM.
